Results on 20 compounds are retold here after patent US8377967B2, “Piperidine derivative” (Nippon Zoki Pharmaceutical Co., Ltd., priority 2008, dated 2013).

The target in one test is T1, cerebral H1 receptor (Mus musculus, UniProt P70174).
T1 construct: the entire brain, except for cerebellum and medulla oblongatae, was rapidly excised; from tissue; host or cells: brain homogenate (without cerebellum and medulla oblongata) of orally dosed ICR male mice
Description: Murine cerebral H1 receptor occupying content (ex vivo). Format: in vivo. To be noted: for ED50: ICR male mouse, oral administration, brain excised after 1 hour, 3H-pyrilamine binding in brain homogenate, larger = lower brain transfer, read-out: ID50 (the source's name); for ID50 (mg/kg)/ ED50 (mg/kg): ID50 of cerebral receptor binding test (Table 20) divided by ED50 of vascular hyperpermeability test (Table 19). The procedure:
A 6-week-old ICR male mouse was previously fed for one week or more by allowing the mouse to take a solid feed and tap water ad libitum, under the environment setting of a temperature of 22° C., humidity of 55% and an artificial illumination of 12 hours a day, and the mouse was fasted overnight to be used for the experiment. A substance to be tested was dissolved with water for injection or suspended in 0.5% carboxymethyl cellulose solution, and the solution or suspension was orally administered to the mouse (dose volume: 0.1 mL/10 g body weight). After 1 hour from the oral administration, the mouse was decapitated, and the entire brain, except for cerebellum and medulla oblongatae, was rapidly excised. The excised brain tissue was homogenized with Polytron (manufactured by Kinematica) in an ice-cooled 50 mmol/L phosphate buffered saline (pH 7.4, 100 mg/1.9 mL).
To a test tube for reaction (TPX-Tube) were added 180 μL of the brain homogenate, and 10 μL of ^3H-pyrilamine solution (final concentration: 2 nmol/L) and 10 μL of a non-labeled pyrilamine solution (final concentration: 200 μmol/L) or a 50 mmol/L phosphate buffered saline, and the mixture was incubated at room temperature for 45 minutes, and 2.0 mL of an ice-cooled, 50 mmol/L phosphate buffered saline was then added thereto to stop the reaction. The reaction mixture was filtered with a GF/B filter (manufactured by […]), and the […] was placed in a vial and dried overnight at 60 degrees. After drying, 10 mL of a scintillator (AL-1, toluene-based, manufactured by DOJINDO LABORATORIES) was added to the product, and the disintegration per minute (dpm) was measured with a liquid scintillation counter (manufactured by Packard, U.S.A., TRI-CARB 2700TR) (5 minutes/vial).

For test [1], the system named is histamine-induced vascular hyperpermeability reaction. Put plainly: Rat histamine-induced vascular hyperpermeability reaction (in vivo antihistamine action). To be noted: SD male rat, oral administration 1 hour before intracutaneous histamine, leaked Evans Blue pigment. The procedure:
An SD male rat (SPF) of 180 g in weight was previously fed for one week or more by allowing the rat to take a solid feed and tap water ad libitum, under the environment setting of a temperature of 22° C., humidity of 55% and an artificial illumination of 12 hours a day (light phase 8 am to 8 pm), and the rat was fasted overnight to be used for the experiment. Histamine•dihydrochloride (hereinafter referred to as histamine) and Evans Blue were used by dissolving each in physiological saline upon use. A substance to be tested was dissolved in water for injection or suspended in 0.5% carboxymethyl cellulose sodium, and the rat was orally administered with the solution or suspension (dose volume: 5 mL/kg body weight). After 1 hour from the administration, the physiological saline and the histamine solution were each intracutaneously injected to two locations (20 μg/0.05 ml/location) each on a back part of the rat of which hair was sheared with an electric clipper while anesthetizing with an ether. A 0.5% Evans Blue-containing physiological saline was injected intravenously to the tail of the rat (1 mL/200 g body weight) immediately before the intracutaneous injection of the histamine.
After 30 minutes, the animal was decapitated, and allowed to bleed lethally, and the skin was removed to measure an amount of leaked pigment in the blue-stained portion. The measurement of the amount of leaked pigment was carried out as follows. Skins of the pigment leaking site were cut out at two locations, 1 mL of a 2 mol/L aqueous potassium hydroxide solution was added thereto in a test tube, and the test tube was allowed to stand overnight at 37° C. to dissolve. Thereafter, 6 mL of a 1:3 mixed solution of 0.67 mol/L phosphoric acid and acetone was added to the solution, and the mixture was vigorously shaken for 10 minutes. Thereafter, the mixture was filtered, and the absorbance of the filtrate at 620 nm was measured. The absorbance obtained from the two locations of the sites injected with physiological saline, as blank value, was used for a compensation. The amount of leaked pigment was calculated from the calibration curve of Evans Blue at 620 nm.

The structures appear in SMILES notation. Some results are limits rather than exact numbers.

T1 sequence (P70174 whole entry): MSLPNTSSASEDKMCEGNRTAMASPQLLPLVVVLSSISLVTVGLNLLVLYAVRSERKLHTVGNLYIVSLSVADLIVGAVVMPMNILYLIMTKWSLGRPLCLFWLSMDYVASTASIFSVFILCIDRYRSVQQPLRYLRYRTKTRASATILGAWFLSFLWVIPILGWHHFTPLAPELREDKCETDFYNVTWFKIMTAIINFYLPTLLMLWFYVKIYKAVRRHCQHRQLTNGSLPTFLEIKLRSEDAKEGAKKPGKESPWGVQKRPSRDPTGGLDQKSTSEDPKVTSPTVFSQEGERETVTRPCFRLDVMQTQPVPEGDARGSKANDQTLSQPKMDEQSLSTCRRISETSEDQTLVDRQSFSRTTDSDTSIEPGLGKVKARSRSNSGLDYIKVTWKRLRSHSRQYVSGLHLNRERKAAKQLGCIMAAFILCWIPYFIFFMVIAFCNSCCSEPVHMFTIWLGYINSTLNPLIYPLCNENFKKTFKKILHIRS

Turning to `CN1CCC(=C2c3ccccc3CCc3sc(C(C)(C)C(=O)O)cc32)CC1` [Compound 65, 2-Methyl-2-[4-(1-methylpiperidin-4-ylidene)-9,10-dihydro-4H-1-thiabenzo[f]azulen-2-yl]propionic acid], on cerebral H1 receptor, the ED50 was found to be 19.5 mg/kg and the “ID50 (mg/kg)/ ED50 (mg/kg)” value was found to be 139.3. This compound also displayed an ED50 in test [1] of 0.14 mg/kg.
The matching figures for `CC(=O)CCN1CCC(=C2c3cc(CC(=O)O)ccc3OCc3ccsc32)CC1` [Compound 192, {4-[1-(3-Oxobutyl)piperidin-4-ylidene]-4,10-dihydro-9-oxa-3-thiabenzo[f]azulen-6-yl}acetic acid]: 63.8 mg/kg, 204.5 and 0.312 mg/kg.
The like results for `CN1CCC(=C2c3ccccc3CCc3sc(C(=O)O)cc32)CC1.Cl` [Compound 4, [4-(1-Methylpiperidin-4-ylidene)-9,10-dihydro-4H-1-thiabenzo[f]azulen-2-yl]carboxylic acid hydrochloride] were, in that order, 43.1 mg/kg, 62.5 and 0.69 mg/kg.
The matching figures for `CC(C)(C(=O)O)c1cc2c(s1)CCc1ccccc1C2=C1CCNCC1.Cl` [Compound 153, 2-Methyl-2-(4-piperidin-4-ylidene-9,10-dihydro-4H-1-thiabenzo[f]azulen-2-yl)propionic acid hydrochloride]: > 200 mg/kg, >76.6 and 2.61 mg/kg.
As to `O=C(O)Cc1ccc2c(c1)C(=C1CCN(CCO)CC1)c1sccc1CO2` [Compound 119, {4-[1-(2-Hydroxyethyl)piperidin-4-ylidene]-4,10-dihydro-9-oxa-3-thiabenzo[f]azulen-6-yl}acetic acid], the ED50 is 74.5 mg/kg at cerebral H1 receptor and 1.1 mg/kg in test [1]. Also, the “ID50 (mg/kg)/ ED50 (mg/kg)” value on cerebral H1 receptor was found to be 67.7.
Regarding `CN1CCC(=C2c3ccccc3CC(=O)c3sccc32)CC1` [Ketotifen, reference compound], in test [1], the ED50 was determined as 0.54 mg/kg.
For `CC(=O)CCCN1CCC(=C2c3cc(CCCC(=O)O)ccc3OCc3ccsc32)CC1` [Compound 188, 4-{4-[1-(4-Oxopentyl)piperidin-4-ylidene]-4,10-dihydro-9-oxa-3-thiabenzo[f]azulen-6-yl}butyric acid], the ED50 is 23 mg/kg at cerebral H1 receptor and ~0.3 mg/kg in test [1]. For the same compound, the “ID50 (mg/kg)/ ED50 (mg/kg)” value at cerebral H1 receptor is given as 76.7.
The like results for `COC(=O)CCCc1ccc2c(c1)C(=C1CCNCC1)c1sccc1CO2.Cl` [Compound 135, Methyl 4-(4-piperidin-4-ylidene-4,10-dihydro-9-oxa-3-thiabenzo[f]azulen-6-yl)butyrate hydrochloride] were, in that order, > 200 mg/kg, 2.33 mg/kg and >85.8.
With `CN1CCC(=C2c3cc(CC(=O)O)ccc3OCc3sccc32)CC1` [Compound 117, [4-(1-Methylpiperidin-4-ylidene)-4,10-dihydro-9-oxa-1-thiabenzo[f]azulen-6-yl]acetic acid], at cerebral H1 receptor, the ED50 was determined as 4.2 mg/kg and the “ID50 (mg/kg)/ ED50 (mg/kg)” value worked out at 155.6. The same compound had an ED50 in test [1] of 0.027 mg/kg.
The like results for `CCOC(=O)Cc1ccc2c(c1)C(=C1CCNCC1)c1sccc1CO2.Cl` [Compound 113, Ethyl (4-piperidin-4-ylidene-4,10-dihydro-9-oxa-3-thiabenzo[f]azulen-6-yl)acetate hydrochloride] were, in that order, 98.7 mg/kg, 1370.8 and 0.072 mg/kg.
As for `CCN1CCC(=C2c3ccccc3CCc3sc(C(C)(C)C(=O)O)cc32)CC1` [Compound 155, 2-[4-(1-Ethylpiperidin-4-ylidene)-9,10-dihydro-4H-1-thiabenzo[f]azulen-2-yl]-2-methylpropionic acid], on cerebral H1 receptor, the ED50 worked out at 66.6 mg/kg and the “ID50 (mg/kg)/ ED50 (mg/kg)” value turned out to be 199.4. This compound also yielded an ED50 in test [1] of 0.334 mg/kg.
Take `COC(=O)Cc1ccc2c(c1)C(=C1CCNCC1)c1sccc1CO2.Cl` [Compound 126, Methyl (4-piperidin-4-ylidene-4,10-dihydro-9-oxa-3-thiabenzo[f]azulen-6-yl)acetate hydrochloride]: at cerebral H1 receptor, the ED50 was 237 mg/kg and the “ID50 (mg/kg)/ ED50 (mg/kg)” value is reported as 530.7. This compound had an ED50 in test [1] of 0.446 mg/kg.
The like results for `CC(OC(=O)Cc1ccc2c(c1)C(=C1CCNCC1)c1sccc1CO2)OC(=O)OC1CCCCC1.Cl` (stereo not shown) [Compound 180, 1-Cyclohexyloxycarbonyloxyethyl (4-piperidin-4-ylidene-4,10-dihydro-9-oxa-3-thiabenzo[f]azulen-6-yl)acetate hydrochloride] were, in that order, > 200 mg/kg, >129.0 and 1.55 mg/kg.
The like results for `CN1CCC(=C2c3cc(C(C)(C)C(=O)O)ccc3OCc3ccsc32)CC1` [Compound 68, 2-Methyl-2-[4-(1-Methylpiperidin-4-ylidene)-4,10-dihydro-9-oxa-3-thiabenzo[f]azulen-6-yl]propionic acid] were, in that order, 14.6 mg/kg, 112.3 and 0.13 mg/kg.
The like results for `CSCCCN1CCC(=C2c3cc(CC(=O)O)ccc3OCc3ccsc32)CC1` [Compound 199, {4-[1-(3-Methylsulfanylpropyl)piperidin-4-ylidene]-4,10-dihydro-9-oxa-3-thiabenzo[f]azulen-6-yl}acetic acid] were, in that order, 4.5 mg/kg, 450.0 and ~0.01 mg/kg.
In the case of `CN1CCC(=C2c3cc(C=CC(=O)O)ccc3OCc3ccsc32)CC1` [Compound 35, 3-[4-(1-Methylpiperidin-4-ylidene)-4,10-dihydro-9-oxa-3-thiabenzo[f]azulen-6-yl]acrylic acid], the ED50 at cerebral H1 receptor turned out to be 28.4 mg/kg; in test [1], 0.28 mg/kg. Further, the “ID50 (mg/kg)/ ED50 (mg/kg)” value at cerebral H1 receptor was determined as 101.4.
The like results for `CCN1CCC(=C2c3cc(CC(=O)O)ccc3OCc3ccsc32)CC1` [Compound 128, [4-(1-Ethylpiperidin-4-ylidene)-4,10-dihydro-9-oxa-3-thiabenzo[f]azulen-6-yl]acetic acid] were, in that order, 7.45 mg/kg, ~0.1 mg/kg and 74.5.
The matching figures for `CCN1CCC(=C2c3ccccc3CCc3sc(C(=O)O)cc32)CC1.Cl` [Compound 108, [4-(1-Ethylpiperidin-4-ylidene)-9,10-dihydro-4H-1-thiabenzo[f]azulen-2-yl]carboxylic acid hydrochloride]: 110 mg/kg, 1.16 mg/kg and 95.3.
The matching figures for `CC(=O)CN1CCC(=C2c3cc(CC(=O)O)ccc3OCc3ccsc32)CC1` [Compound 168, {4-[1-(2-Oxopropyl)piperidin-4-ylidene]-4,10-dihydro-9-oxa-3-thiabenzo[f]azulen-6-yl}acetic acid]: 10.4 mg/kg, 0.264 mg/kg and 39.4.
As for `CN1CCC(=C2c3cc(SC(C)(C)C(=O)O)ccc3OCc3ccsc32)CC1.Cl` [Compound 190, 2-Methyl-2-[4-(1-methylpiperidin-4-ylidene)-4,10-dihydro-9-oxa-3-thiabenzo[f]azulen-6-ylsulfanyl]propionic acid hydrochloride], on cerebral H1 receptor, the ED50 turned out to be 73.2 mg/kg and the “ID50 (mg/kg)/ ED50 (mg/kg)” value came to 174.7. This compound also registered an ED50 in test [1] of 0.419 mg/kg.
